One series addresses DNA polymerase α (Homo sapiens (Human), UniProt P09884). Kind of series: DNA polymerase α single nucleotide incorporation (SNI) rate assay. The series is classed as biochemical. The following applies: incorporation rate as a percentage relative to the corresponding natural dNTP; 50 μM analog. Here is the method: Example 13: DNA Polymerase a Single Nucleotide Incorporation (SNI) Rate Assay
The DNA polymerase (pol) a SNI assay utilized an annealed ^32P labeled primer-template complex of D19 [5′-G TCC CTG TTC GGG CGC CAC-3′] and D36 A/G/T/C [3′-CGACCGTCCAGGGACAAGCCCGCG (TGT/CGT/ACG/GCG) ATC TCT-5′] where the templating base was chosen to base pair to the natural dNTP and analogs assayed. Reactions containing 50 mM Tris-Cl pH 8.0, 5 mM DTT, 0.2 mg/mL bSA, 200 nM D19/D36 mer and 10 mM MgCl2 and 5 nM DNA pol a were heated to 37° C. and initiated by addition of 50 μM (final) natural dNTP or analogs. At 0, 5, 10, 20, 40, and 60 min, 10 μL of the reaction mixture was removed and quenched with 10 μL of a gel loading buffer containing 100 mM EDTA, 80% formamide and bromophenol blue, and heated at 65° C. for 5 minutes. The samples were run on a 20% polyacrylamide gel (8 M urea) and the gel was exposed to a phosphorimager screen. The substrate and the incorporation products, D19 and D20-28, were quantified using a Typhoon Trio Imager and Image Quant TL Software. The nucleotide incorporation rate was calculated in Prism by fitting the product formation using the single exponential equation: [D20]=A*(1−e−k*t), where [D20] represents the amount (in nM) of the elongated product formed, t represents the reaction time, k represents the observed rate, and A represents the amplitude of the exponential. […]

The nature of series [1]: Rhesus pharmacokinetic study, intravenous compound 7 (plasma and PBMC). The following applies: for Intracellular concentration in PBMC: LOQ 2.5 μM compound 7, 0.63 μM triphosphate. The procedure:
Male Indian Origin Rhesus Monkeys were used for the pharmacokinetic studies. Studies were conducted under a protocol approved by IACUC. […] The intravenous dose was administered as an approximately 30-minute infusion, and after dose administration the dose apparatus was flushed with approximately 1 mL saline before removal from the animal. Food was returned 4 hours after dosing. […] The K2EDTA tubes were kept chilled at approximately 5° C. until centrifugation (4° C., 5 minutes, 2000×g) to collect plasma. Centrifugation began within 1 hour of collection. Plasma samples were harvested, placed in micronic tubes, and maintained on dry ice prior to storage at −70° C. until analysis by LC-MS/MS. […] The sodium citrate tubes were then gently inverted 3-4 times and stored upright at ambient temperature until centrifugation to collect PBMCs. Centrifugation began as soon as possible following collection, within 6 hours after collection. The PBMCs were separated by centrifugation (30 minutes at 1500×g-1800×g, 18-20° C.), washed once with ice cold 0.9% NaCl and treated with red blood cell lysis buffer (3.5 g ammonium chloride and 0.036 g ammonium carbonate in 500 mL ultrapure water, prepared before first blood collection) for 10 minutes at ambient temperature. Subsequently the cells were washed twice with ice cold 0.9% NaCl, the cell pellet resuspended in ice cold RIPA buffer (fortified with Pierce protease ad phosphatase inhibitor tablet), snap frozen in liquid nitrogen, and maintained at −70° C. until analysis by LC-MS/MS.

The next series addresses DNA polymerase γ (Homo sapiens (Human), UniProt P54098). The series can be described thus: DNA polymerase γ single nucleotide incorporation (SNI) rate assay. It counts as biochemical. The following applies: incorporation rate as a percentage relative to the corresponding natural dNTP; 50 μM analog. The procedure:
Example 12: DNA Polymerase γ Single Nucleotide Incorporation (SNI) Rate Assay
The DNA polymerase (pol) γ SNI assay utilized an annealed ^32P labeled primer-template complex of D19 [5′-G TCC CTG TTC GGG CGC CAC-3′] and D36 A/G/T/C [3′-CGACCGTCCAGGGACAAGCCCGCG (TGT/CGT/ACG/GCG) ATC TCT-5′] where the templating base was chosen to base pair to the natural dNTP and analogs assayed. 20 nM DNA pol γ large subunit and 100 nM pol γ accessory subunit were preincubated on ice for 5 minutes and added to reaction mix containing 50 mM Tris-Cl pH 8.0, 5 mM DTT, 0.2 mg/mL bSA, 200 nM D19/D36 mer and 10 mM MgCl2. […] The substrate and the incorporation products, D19 and D20-28, were quantified using a Typhoon Trio Imager and Image Quant TL Software. The nucleotide incorporation rate was calculated in Prism by fitting the product formation using the single exponential equation: [D20]=A*(1−e−k*t), where [D20] represents the amount (in nM) of the elongated product formed, t represents the reaction time, k represents the observed rate, and A represents the amplitude of the exponential. […]

Series [2] in a line: Rhesus pharmacokinetic study, oral compound 7 (plasma and PBMC). The following applies: for Intracellular concentration in PBMC: LOQ 0.16 μM compound 7, 0.04 μM triphosphate. The procedure:
The oral dose was administered via oral gavage, and after dose administration the dose apparatus was flushed with approximately 10 mL water before removal from the animal. Food was returned 4 hours after dosing. […] The K2EDTA tubes were kept chilled at approximately 5° C. until centrifugation (4° C., 5 minutes, 2000×g) to collect plasma. Centrifugation began within 1 hour of collection. Plasma samples were harvested, placed in micronic tubes, and maintained on dry ice prior to storage at −70° C. until analysis by LC-MS/MS. […] The sodium citrate tubes were then gently inverted 3-4 times and stored upright at ambient temperature until centrifugation to collect PBMCs. Centrifugation began as soon as possible following collection, within 6 hours after collection. The PBMCs were separated by centrifugation (30 minutes at 1500×g-1800×g, 18-20° C.), washed once with ice cold 0.9% NaCl and treated with red blood cell lysis buffer (3.5 g ammonium chloride and 0.036 g ammonium carbonate in 500 mL ultrapure water, prepared before first blood collection) for 10 minutes at ambient temperature. Subsequently, the cells were washed twice with ice cold 0.9% NaCl and the cell pellet maintained at −70° C. until analysis by LC-MS/MS.

Chain of DNA polymerase α (P09884 whole entry): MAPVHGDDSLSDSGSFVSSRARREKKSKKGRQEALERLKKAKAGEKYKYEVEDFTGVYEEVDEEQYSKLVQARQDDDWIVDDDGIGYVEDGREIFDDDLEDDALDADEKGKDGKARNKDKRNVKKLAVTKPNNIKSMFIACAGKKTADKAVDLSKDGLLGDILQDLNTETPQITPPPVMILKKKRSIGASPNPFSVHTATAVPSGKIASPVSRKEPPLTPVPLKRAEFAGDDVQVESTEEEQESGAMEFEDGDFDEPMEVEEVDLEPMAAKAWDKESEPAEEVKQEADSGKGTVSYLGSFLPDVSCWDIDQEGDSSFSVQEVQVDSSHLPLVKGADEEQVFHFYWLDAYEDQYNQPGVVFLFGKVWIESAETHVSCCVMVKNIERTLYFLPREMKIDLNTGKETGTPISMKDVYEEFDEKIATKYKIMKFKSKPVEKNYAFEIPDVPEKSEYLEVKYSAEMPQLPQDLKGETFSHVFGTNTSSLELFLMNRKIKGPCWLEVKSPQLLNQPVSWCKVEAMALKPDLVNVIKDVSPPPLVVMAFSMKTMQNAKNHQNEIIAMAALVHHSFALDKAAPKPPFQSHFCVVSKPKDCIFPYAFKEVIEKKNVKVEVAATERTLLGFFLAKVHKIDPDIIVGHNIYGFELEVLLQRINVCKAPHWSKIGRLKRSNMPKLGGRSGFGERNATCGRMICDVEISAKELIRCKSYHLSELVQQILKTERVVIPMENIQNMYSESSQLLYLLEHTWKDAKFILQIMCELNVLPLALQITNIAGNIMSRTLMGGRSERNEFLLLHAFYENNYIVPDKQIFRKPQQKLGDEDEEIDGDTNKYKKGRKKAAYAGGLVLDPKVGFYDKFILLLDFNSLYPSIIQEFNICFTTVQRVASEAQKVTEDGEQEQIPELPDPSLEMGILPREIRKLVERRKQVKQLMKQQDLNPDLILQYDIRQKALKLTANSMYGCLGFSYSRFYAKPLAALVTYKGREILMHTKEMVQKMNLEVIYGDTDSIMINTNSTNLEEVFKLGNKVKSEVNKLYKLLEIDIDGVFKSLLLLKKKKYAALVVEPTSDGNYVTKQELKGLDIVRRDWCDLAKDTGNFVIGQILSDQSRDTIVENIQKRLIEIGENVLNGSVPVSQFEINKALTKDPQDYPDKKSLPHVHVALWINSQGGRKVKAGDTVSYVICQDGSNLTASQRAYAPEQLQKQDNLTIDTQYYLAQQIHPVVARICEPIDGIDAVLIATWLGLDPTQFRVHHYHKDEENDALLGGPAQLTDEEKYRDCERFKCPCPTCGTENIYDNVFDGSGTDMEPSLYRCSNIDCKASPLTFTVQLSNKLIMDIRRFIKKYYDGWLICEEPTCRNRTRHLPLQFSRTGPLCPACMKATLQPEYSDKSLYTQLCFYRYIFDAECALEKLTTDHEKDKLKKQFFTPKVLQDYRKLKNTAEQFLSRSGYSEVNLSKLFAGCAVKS
Chain of DNA polymerase γ (P54098 whole entry, looked up): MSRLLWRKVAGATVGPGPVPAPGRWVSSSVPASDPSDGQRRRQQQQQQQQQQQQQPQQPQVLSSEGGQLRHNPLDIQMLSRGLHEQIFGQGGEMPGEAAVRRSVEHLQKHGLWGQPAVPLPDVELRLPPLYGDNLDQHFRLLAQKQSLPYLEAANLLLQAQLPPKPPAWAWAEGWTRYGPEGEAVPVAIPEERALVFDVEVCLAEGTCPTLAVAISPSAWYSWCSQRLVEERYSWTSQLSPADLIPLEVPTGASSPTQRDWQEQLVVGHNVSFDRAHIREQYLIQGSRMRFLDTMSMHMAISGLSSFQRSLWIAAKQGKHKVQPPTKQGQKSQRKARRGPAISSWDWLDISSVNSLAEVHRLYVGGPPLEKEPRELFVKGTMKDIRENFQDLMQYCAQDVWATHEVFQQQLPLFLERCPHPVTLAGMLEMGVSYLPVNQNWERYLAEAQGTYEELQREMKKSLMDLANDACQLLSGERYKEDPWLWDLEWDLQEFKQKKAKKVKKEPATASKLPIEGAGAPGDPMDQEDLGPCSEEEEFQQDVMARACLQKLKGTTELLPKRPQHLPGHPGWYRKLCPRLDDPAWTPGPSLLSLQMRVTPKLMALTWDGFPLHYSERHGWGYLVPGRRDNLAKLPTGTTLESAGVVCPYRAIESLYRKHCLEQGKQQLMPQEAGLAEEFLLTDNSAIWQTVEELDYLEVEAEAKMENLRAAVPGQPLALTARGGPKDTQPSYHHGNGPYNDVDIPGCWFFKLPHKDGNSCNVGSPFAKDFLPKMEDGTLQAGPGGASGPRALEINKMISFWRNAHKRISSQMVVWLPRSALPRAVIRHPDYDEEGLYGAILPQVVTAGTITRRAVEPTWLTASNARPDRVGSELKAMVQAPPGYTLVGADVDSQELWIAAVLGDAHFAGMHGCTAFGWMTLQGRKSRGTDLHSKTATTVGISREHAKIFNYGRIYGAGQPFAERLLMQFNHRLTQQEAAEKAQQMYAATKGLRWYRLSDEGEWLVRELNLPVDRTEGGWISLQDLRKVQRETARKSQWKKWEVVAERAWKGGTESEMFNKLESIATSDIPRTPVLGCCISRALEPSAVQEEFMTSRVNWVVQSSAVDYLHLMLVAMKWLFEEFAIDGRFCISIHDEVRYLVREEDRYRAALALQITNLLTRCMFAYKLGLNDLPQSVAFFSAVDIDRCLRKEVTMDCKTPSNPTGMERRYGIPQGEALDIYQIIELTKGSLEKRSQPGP
Chain of DNA polymerase γ (Q9UHN1 whole entry partner, looked up): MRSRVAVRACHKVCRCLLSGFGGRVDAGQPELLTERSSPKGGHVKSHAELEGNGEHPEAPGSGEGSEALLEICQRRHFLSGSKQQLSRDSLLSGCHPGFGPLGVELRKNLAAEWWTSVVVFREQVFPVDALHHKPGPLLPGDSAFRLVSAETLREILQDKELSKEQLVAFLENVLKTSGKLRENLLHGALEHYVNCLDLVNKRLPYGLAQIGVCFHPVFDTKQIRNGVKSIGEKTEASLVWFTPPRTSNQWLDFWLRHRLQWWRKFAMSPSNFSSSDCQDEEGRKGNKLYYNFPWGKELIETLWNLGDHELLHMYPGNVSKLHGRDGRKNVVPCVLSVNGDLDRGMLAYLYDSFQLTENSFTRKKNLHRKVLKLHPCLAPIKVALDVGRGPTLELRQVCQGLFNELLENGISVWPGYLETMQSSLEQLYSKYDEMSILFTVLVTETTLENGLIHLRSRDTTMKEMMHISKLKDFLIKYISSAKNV

On to “Hemitriethylamine ((2R,3S,5R)-5-(4-amino-5-fluoro-2-oxopyrimidin-1(2H)-yl)-2-ethynyl-3-hydroxytetrahydrothiophen-2-yl)methyl triphosphate [Compound 8]”, for which the “DNA Pol α SNIR” value on DNA polymerase α stood at 2.6. For the same substance, the “Intracellular concentration in PBMC” value in series [1] (12 hr after intravenous 1 mg/kg compound 7) was 2.19 ± 0.31 µM; in series [1] (24 hr after intravenous 1 mg/kg compound 7) it was 1.34 ± 0.14 µM; in series [1] (48 hr after intravenous 1 mg/kg compound 7), 0.42 ± 0.06 µM; in series [1] (72 hr after intravenous 1 mg/kg compound 7), “BLQ”; in series [1] (144 hr after intravenous 1 mg/kg compound 7), “BLQ”; in series [1] (168 hr after intravenous 1 mg/kg compound 7), “BLQ”. Moreover, the “Intracellular concentration in PBMC” value was found to be 1.43 ± 0.45 µM in series [2] (12 hr after oral 7.5 mg/kg compound 7); 1.78 ± 0.57 µM in series [2] (24 hr after oral 7.5 mg/kg compound 7); 1.15 ± 0.76 µM in series [2] (48 hr after oral 7.5 mg/kg compound 7); 0.47 ± 0.22 µM in series [2] (72 hr after oral 7.5 mg/kg compound 7); 0.17 ± 0.01 µM in series [2] (120 hr after oral 7.5 mg/kg compound 7); 0.09 ± 0.02 µM in series [2] (168 hr after oral 7.5 mg/kg compound 7). The “Calculated half life of triphosphate metabolite” value in series [1] (in PBMC, intravenous 1 mg/kg compound 7) was “Calculated half life of triphosphate metabolite: 19.8 ± 9.3 hours”. Moreover, on DNA polymerase γ, the “DNA Pol γ SNIR” value came out at 1.3. Moreover, the “Calculated half-life of triphosphate metabolite” value in series [2] (in PBMC, oral 7.5 mg/kg compound 7) was “Calculated half-life of triphosphate metabolite: 43.1 ± 19.3 hours”.

Values taken from patent US20240226130A1, “4'-THIONUCLEOSIDE ANALOGUES AND THEIR PHARMACEUTICAL USE” (Gilead Sciences, Inc., priority 2022, published 2024).
